Measurements as given in patent publication US6297043A, “Mumbaistatin, a process for it's production and its use as a pharmaceutical” (Aventis Pharma Deutschland GmbH, priority 1998, dated 2001).

Columns and labels:
[1] = molecular target: T1, rat liver microsomal glucose-6-phosphate translocase (Rattus norvegicus, UniProt F7EWB7); experiment: inhibition of rat liver microsomal glucose-6-phosphate translocase activity; format: biochemical
T1 construct: rat liver microsomal glucose-6-phosphate translocase; from tissue; host or cells: rat liver microsomes
T1 sequence (F7EWB7 1-429): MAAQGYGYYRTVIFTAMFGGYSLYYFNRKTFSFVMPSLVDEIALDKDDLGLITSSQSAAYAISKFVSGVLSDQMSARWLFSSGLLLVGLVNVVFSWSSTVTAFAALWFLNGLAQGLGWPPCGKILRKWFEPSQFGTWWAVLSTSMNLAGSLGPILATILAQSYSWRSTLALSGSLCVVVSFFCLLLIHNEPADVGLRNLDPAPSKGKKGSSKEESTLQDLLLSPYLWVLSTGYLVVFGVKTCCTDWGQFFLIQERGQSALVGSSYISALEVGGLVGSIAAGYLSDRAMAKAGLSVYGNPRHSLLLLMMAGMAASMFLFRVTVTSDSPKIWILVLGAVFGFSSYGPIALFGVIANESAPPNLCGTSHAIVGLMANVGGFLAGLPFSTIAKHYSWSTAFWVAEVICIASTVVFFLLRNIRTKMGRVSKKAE
Source text: (§1) If desired, DESMOPHEN® (polypropylene oxide) may be used as an antifoam agent in the fermenters. […] In the resulting culture broth, Mumbaistatin is present primarily in the culture filtrate and can thus be recovered by extraction of the culture filtrate with a water immiscible solvent such as, for example, ethyl acetate, dichloromethane, chloroform or butanol at pH 5-8, or by hydrophobic interaction chromatography using polymeric resins such as DIAION® HP-20 (Mitsubishi Chemical Industries Limited, Japan), AMBERLITE® XAD (Rohm and Haas Industries, U.S.A.), or activated charcoal, or by ion exchange chromatography at pH 5-8.
(§2) The production of Mumbaistatin was monitored by measuring the inhibition of glucose-6-phosphate translocase.
(§3) The production of the compound was monitored by measuring the inhibition of glucose-6-phosphate translocase.

[2] = system: rat liver microsomal glucose-6-phosphate translocase; experiment: as above; format: biochemical; conditions: translocase versus phosphatase activity
Source text: as §1, §2, §3

[3] = system: phosphate/pyrophosphate translocase; experiment: effect on activity of phosphate/pyrophosphate translocase; format: biochemical
[4] = system: fructose-induced gluconeogenesis; experiment: glucose output of isolated rat hepatocytes: fructose-induced gluconeogenesis; format: cell-based
Method: (§4) Mumbaistatin was further evaluated in isolated rat hepatocytes for its effect on glucose output. It inhibits both fructose-induced gluconeogenesis and glucagon-induced glycogenolysis with IC50 values of about 0.3 μM and 0.6 μM, respectively.

[5] = system: glucagon-induced glycogenolysis; experiment: glucose output of isolated rat hepatocytes: glucagon-induced glycogenolysis; format: cell-based
Method: as §4

- mode of inhibition of glucose-6-phosphate translocase [1]: reversible and competitive inhibitor
- IC50 ([1]; rat liver microsomal): ~25 nM
- inhibition of glucose-6-phosphate translocase ([1]; rat liver microsomal): potently inhibits
- effect on activity of phosphate/pyrophosphate translocase [3]: did not affect
Substance: Mumbaistatin
- specificity for translocase over phosphatase [2]: high degree of specificity for translocase
- IC50 [4]: ~300 nM
- IC50 [5]: ~600 nM
